Numbers after ± are expanded uncertainties.
Key:
[1] = for surface tension liquid-gas: Pendant drop shape; for mass density: 101 kPa, Liquid
[2] = xn = mol fraction of the nth substance listed; settings: for surface tension liquid-gas: Pendant drop shape; for mass density: 101 kPa, Liquid

| SMILES | surface tension liquid-gas ([1]; 298.15 K) [mN/m] | mass density ([1]; 298.15 K) [kg/m3] | surface tension liquid-gas ([1]; 308.15 K) [mN/m] | mass density ([1]; 308.15 K) [kg/m3] | surface tension liquid-gas ([1]; 313.15 K) [mN/m] | mass density ([1]; 313.15 K) [kg/m3] | further results |
| --- | --- | --- | --- | --- | --- | --- | --- |
| Cc1cc(C)cc(C)c1 [1,3,5-trimethylbenzene] | 28.05 ± 0.31 | 861.12 ± 0.41 | 27.21 ± 0.3 | 852.94 ± 0.42 | 26.78 ± 0.3 | 848.82 ± 0.43 |  |
| Cc1cc(C)cc(C)c1 [1,3,5-trimethylbenzene] + CC(=O)OCC(C)C |  |  |  |  |  |  | surface tension liquid-gas ([2]; 298.15 K, x2 = 0): 28.05 ± 0.31 mN/m; mass density ([2]; 298.15 K, x2 = 0): 861.12 ± 0.53 kg/m3; surface tension liquid-gas ([2]; 308.15 K, x2 = 0): 27.21 ± 0.3 mN/m; mass density ([2]; 308.15 K, x2 = 0): 852.94 ± 0.55 kg/m3; surface tension liquid-gas ([2]; 313.15 K, x2 = 0): 26.78 ± 0.3 mN/m; mass density ([2]; 313.15 K, x2 = 0): 848.82 ± 0.56 kg/m3 |
| Cc1ccc(C)c(C)c1 [1,2,4-trimethylbenzene] + CC(=O)OCC(C)C |  |  |  |  |  |  | surface tension liquid-gas ([2]; 298.15 K, x2 = 0): 29.3 ± 0.33 mN/m; mass density ([2]; 298.15 K, x2 = 0): 871.71 ± 0.54 kg/m3; surface tension liquid-gas ([2]; 308.15 K, x2 = 0): 28.24 ± 0.32 mN/m; mass density ([2]; 308.15 K, x2 = 0): 863.68 ± 0.56 kg/m3; surface tension liquid-gas ([2]; 313.15 K, x2 = 0): 27.71 ± 0.31 mN/m; mass density ([2]; 313.15 K, x2 = 0): 859.58 ± 0.56 kg/m3 |
| CC(=O)OC(C)C [1-methylethyl ethanoate] + Cc1ccc(C)c(C)c1 |  |  |  |  |  |  | surface tension liquid-gas ([2]; 298.15 K, x1 = 1): 21.89 ± 0.25 mN/m; mass density ([2]; 298.15 K, x1 = 1): 866.25 ± 0.44 kg/m3; surface tension liquid-gas ([2]; 308.15 K, x1 = 1): 20.81 ± 0.24 mN/m; mass density ([2]; 308.15 K, x1 = 1): 854.54 ± 0.46 kg/m3; surface tension liquid-gas ([2]; 313.15 K, x1 = 1): 20.29 ± 0.24 mN/m; mass density ([2]; 313.15 K, x1 = 1): 848.61 ± 0.47 kg/m3 |
| CC(=O)OCC(C)C [2-methylpropyl ethanoate] | 23.15 ± 0.35 | 866.06 ± 1.2 | 22.16 ± 0.33 | 855.51 ± 1.2 | 21.64 ± 0.33 | 850.16 ± 1.2 |  |
| CC(=O)OC(C)C [1-methylethyl ethanoate] + Cc1cc(C)cc(C)c1 |  |  |  |  |  |  | surface tension liquid-gas ([2]; 298.15 K, x1 = 1): 21.89 ± 0.25 mN/m; mass density ([2]; 298.15 K, x1 = 1): 866.25 ± 0.34 kg/m3; surface tension liquid-gas ([2]; 308.15 K, x1 = 1): 20.81 ± 0.24 mN/m; mass density ([2]; 308.15 K, x1 = 1): 854.54 ± 0.36 kg/m3; surface tension liquid-gas ([2]; 313.15 K, x1 = 1): 20.29 ± 0.24 mN/m; mass density ([2]; 313.15 K, x1 = 1): 848.61 ± 0.37 kg/m3 |
| CC(=O)OC(C)C [1-methylethyl ethanoate] | 21.89 ± 0.25 | 866.25 ± 0.44 | 20.81 ± 0.24 | 854.54 ± 0.46 | 20.29 ± 0.24 | 848.61 ± 0.47 |  |
| Cc1ccc(C)c(C)c1 [1,2,4-trimethylbenzene] | 29.3 ± 0.33 | 871.71 ± 0.54 | 28.24 ± 0.32 | 863.68 ± 0.56 | 27.71 ± 0.31 | 859.58 ± 0.56 |  |

Source: the NIST ThermoML archive (doi:10.1021/je800046k)
